We go through 39 molecules from patent publication US20050130989A1, “N-arylheteroaromatic products compositions containing them and use thereof” (Aventis Pharma S. A., priority 2003, published 2005).

Where a name gives a salt, the structure may show the parent alone.

The target of this test is T1, tubulin (Sus scrofa, UniProt P02550+P02554).
T1 construct: Tubulin is purified from pig brain according to published methods; from tissue; host or cells: pig brain
In words: Evaluation of the inhibition of tubulin polymerization (turbidimetry). In kind it is biochemical, pig. To be noted: tubulin 10 μm (1 mg/ml), 37° C., turbidity at 350 nm; concentration that inhibits the rate of polymerization by 50%; read-out: Inhibition of tubulin polymerization IC 50 (μm). How it is done: Tubulin is purified from pig brain according to published methods (Shelanski et al., 1973, Proc. Natl. Acad. Sci. USA, 70, 765-768. Weingarten et al., 1975, Proc. Natl. Acad. Sci. USA, 72, 1858-1862). Briefly, the brains are ground and centrifuged in an extraction buffer. The tubulin contained in the supernatant of the extract undergoes two successive cycles of polymerization at 37° C. and depolymerization at 4° C., before being separated from the MAPs (Microtubule Associated Proteins) by chromatography on a phosphocellulose P11 column (Whatman). The tubulin thus isolated is more than 95% pure. It is stored in a buffer known as RB/2 30% glycerol, the composition of which is 50 mM MES-NaOH [2-(N-morpholino)ethanesulfonic acid], pH 6.8; 0.25 mM MgCl2; 0.5 mM EGTA; 30% glycerol (v/v), 0.2 mM GTP (guanosine-5′-triphosphate).
The polymerization of tubulin to microtubules is monitored by turbidimetry as follows: the tubulin is adjusted to a concentration of 10 μm (1 mg/ml) in RB/2 30% glycerol buffer to which 1 mM GTP and 6 mM MgCl2 are added. The polymerization is triggered by an increase in temperature from 6° C. to 37° C. in a cuvette with an optical path length of 1 cm, placed in a UVIKON 931 spectrophotometer (Kontron) equipped with a thermostatically maintained cuvette holder. The increase in the turbidity of the solution is monitored at 350 nm.
The products are dissolved at 10 mM in DMSO and added at variable concentrations (0.5 to 10 μm) to the tubulin solution before polymerization. The IC50 value is defined as the concentration of product that inhibits the rate of polymerization by 50%.

T1 sequence (P02550 whole entry): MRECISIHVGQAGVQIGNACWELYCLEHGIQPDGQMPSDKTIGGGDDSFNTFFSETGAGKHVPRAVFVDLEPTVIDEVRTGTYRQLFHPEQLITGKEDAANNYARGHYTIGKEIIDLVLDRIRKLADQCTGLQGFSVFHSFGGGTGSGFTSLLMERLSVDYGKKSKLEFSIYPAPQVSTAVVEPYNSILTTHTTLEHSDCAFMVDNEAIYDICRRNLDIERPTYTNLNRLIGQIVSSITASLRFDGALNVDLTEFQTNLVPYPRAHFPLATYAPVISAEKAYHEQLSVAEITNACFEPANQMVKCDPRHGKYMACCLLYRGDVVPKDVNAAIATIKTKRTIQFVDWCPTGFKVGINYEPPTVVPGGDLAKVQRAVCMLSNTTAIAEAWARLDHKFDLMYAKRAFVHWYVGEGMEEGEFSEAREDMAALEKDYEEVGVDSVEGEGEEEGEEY
T1 sequence (P02554 whole entry): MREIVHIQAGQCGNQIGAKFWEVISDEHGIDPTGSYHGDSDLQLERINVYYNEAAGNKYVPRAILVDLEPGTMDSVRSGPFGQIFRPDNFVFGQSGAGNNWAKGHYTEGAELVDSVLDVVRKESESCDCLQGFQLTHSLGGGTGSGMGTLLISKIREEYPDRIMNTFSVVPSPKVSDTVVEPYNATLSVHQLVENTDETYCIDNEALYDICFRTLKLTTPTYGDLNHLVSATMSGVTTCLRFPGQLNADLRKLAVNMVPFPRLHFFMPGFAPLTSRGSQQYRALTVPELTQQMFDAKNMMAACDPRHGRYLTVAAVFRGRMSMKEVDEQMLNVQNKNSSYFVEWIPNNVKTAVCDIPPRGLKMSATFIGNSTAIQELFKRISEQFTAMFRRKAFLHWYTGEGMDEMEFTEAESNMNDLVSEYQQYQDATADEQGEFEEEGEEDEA

`COc1cc(OC)cc(N2CCN(C(=O)c3cc(C(C)O)nn3-c3ccccc3)CC2)c1` (stereo not drawn) [Example E127, [4-(3,5-Dimethoxyphenyl)piperazin-1-yl][5-(1-hydroxyethyl)-2-phenyl-2H-pyrazol-3-yl]methanone]: the IC50 came to 2.3 µM.
For `CSc1ccccc1N1CCN(C(=O)c2cc(C)nn2-c2ccccc2)CC1` [3/12], the IC50 amounted to 3 µM.
On to `COCOCc1cc(C(=O)N2CCN(c3cccc(C(N)=O)c3)CC2)n(-c2ccccc2)n1` [Example E113, 3-[4-(5-Methoxymethoxymethyl-2-phenyl-2H-pyrazole-3-carbonyl)piperazin-1-yl]benzamide], for which the IC50 is 9.2 µM.
Take `COc1cc(OC)cc(N2CCN(C(=O)c3cc(N4CCCCC4)nn3-c3ccccc3)CC2)c1` [Example E138, [4-(3,5-dimethoxyphenyl)piperazin-1-yl][5-(piperid-1-yl)-2-phenyl-2H-pyrazol-3-yl)methanone]: the IC50 was determined as 22 µM.
On to `Cc1cc(C(=O)N2CCN(c3cccc4ccccc34)CC2)n(-c2cccc(Cl)c2)n1` [3/124], for which the IC50 was 12 µM.
For `COc1cccc(-n2nc(C)cc2C(=O)N2CCN(c3ccccc3C)CC2)c1` [3/134], the IC50 was 4.3 µM.
With `Cc1cc(C(=O)N2CCN(c3cccc(C)c3C)CC2)n(-c2cccc(Cl)c2)n1` [3/122], the IC50 came to 7.5 µM.
As to `COc1cc(OC)cc(N2CCN(C(=O)c3cc(-c4ccsc4C=O)nn3-c3ccccc3)CC2)c1` [Example E114, 3-{5-[4-(3,5-Dimethoxyphenyl)piperazine-1-carbonyl]-1-phenyl-1H-pyrazol-3-yl}thiophene-2-carboxaldehyde], the IC50 turned out to be 12.9 µM.
For `Cc1cc(C(=O)N2CCN(c3cc(Cl)ccc3C)CC2)n(-c2cccc(Cl)c2)n1` [3/70], the IC50 is 12.5 µM.
Regarding `COc1cccc(-n2nc(C)cc2C(=O)N2CCN(c3ccccc3SC)CC2)c1` [3/137], the IC50 was 4.2 µM.
Regarding `CCOc1ccccc1N1CCN(C(=O)c2cc(C)nn2-c2cccc(C)c2)CC1` [3/115], the IC50 was determined as 20 µM.
Regarding `COc1cc(OC)cc(N2CCN(C(=O)c3cc(C(O)c4ccccc4)nn3-c3ccccc3)CC2)c1` (stereo not drawn) [Example E131, [4-(3,5-Dimethoxyphenyl)piperazin-1-yl][5-(hydroxyphenylmethyl)-2-phenyl-2H-pyrazol-3-yl]methanone], the IC50 is less than 25 µM.
Take `COc1cccc(N2CCN(C(=O)c3cc(C)nn3-c3ccccc3)CC2)n1` [Example E8, [4-(6-Methoxypyrid-2-yl)piperazin-1-yl](5-methyl-2-phenyl-2H-pyrazol-3-yl)-methanone]: the IC50 was 2 µM.
Then `COc1ccc(-n2nc(C)cc2C(=O)N2CCN(c3ccccc3)CC2)cc1` [3/1], with 20 µM; and `NC(=O)c1cccc(N2CCN(C(=O)c3ccnn3-c3ccccc3)CC2)c1` [Example E133, 3-[4-(2-Phenyl-2H-pyrazole-3-carbonyl)piperazin-1-yl]benzamide], with 1 µM.
Take `Cc1ccc(C)c(N2CCN(C(=O)c3cc(C)nn3-c3ccccc3)CC2)c1` [3/108]: the IC50 stood at 3.5 µM.
Regarding `CCC(O)c1cc(C(=O)N2CCN(c3cc(OC)cc(OC)c3)CC2)n(-c2ccccc2)n1` (stereo not drawn) [Example E125, [4-(3,5-Dimethoxyphenyl)piperazin-1-yl][5-(1-hydroxypropyl)-2-phenyl-2H-pyrazol-3-yl]methanone], the IC50 turned out to be 4.1 µM.
Regarding `Cc1cc(C(=O)N2CCN(c3ccc(C)c(C)c3)CC2)n(-c2ccc(F)cc2)n1` [3/103], the IC50 is 21 µM.
As to `O=C(c1cc(Br)nn1-c1ccc(Br)cc1)N1CCN(c2cccc(Cl)c2)CC1` [Example E64, [5-Bromo-2-(4-bromophenyl)-2H-pyrazol-3-yl][4-(3-chlorophenyl)piperazin-1-yl]methanone], the IC50 came out at 3.5 µM.
For `Cc1cc(C(=O)N2CCN(c3cccc(OC(F)F)c3)CC2)n(-c2ccccc2)n1` [Example E136, [4-(3-Difluoromethoxyphenyl)piperazin-1-yl](5-methyl-2-phenyl-2H-pyrazol-3-yl)methanone hydrochloride], the IC50 is 1.3 µM.
As for `Cc1cc(C(=O)N2CCN(c3cccc(CO)c3)CC2)n(-c2ccccc2)n1` [Example E132, [4-(3-Hydroxymethylphenyl)piperazin-1-yl](5-methyl-2-phenyl-2H-pyrazol-3-yl)methanone], the IC50 was found to be 0.9 µM.
Take `CCOC(=O)/C=C/c1cc(C(=O)N2CCN(c3cc(OC)cc(OC)c3)CC2)n(-c2ccccc2)n1` [Example E112, Ethyl E-3-{5-[4-(3,5-dimethoxyphenyl)piperazine-1-carbonyl]-1-phenyl-1H-pyrazol-3-yl}acrylate]: the IC50 worked out at 3 µM.
In the case of `Cc1cccc(-n2nc(C)cc2C(=O)N2CCN(c3cccc(C)c3C)CC2)c1` [3/114], the IC50 amounted to 0.8 µM.
For `COc1cc(OC)cc(N2CCN(C(=O)c3cc(CN)nn3-c3ccccc3)CC2)c1` [Example E120, (5-Aminomethyl-2-phenyl-2H-pyrazol-3-yl)[4-(3,5-dimethoxyphenyl)piperazin-1-yl]methanone], the IC50 was 17.9 µM.
For `COc1cc(OC)cc(N2CCN(C(=O)c3cc(C(O)C4CCCC4)nn3-c3ccccc3)CC2)c1` (stereo not drawn) [Example E124, [5-(Cyclopentylhydroxymethyl)-2-phenyl-2H-pyrazol-3-yl][4-(3,5-dimethoxy-phenyl)piperazin-1-yl]methanone], the IC50 was less than 25 µM.
Take `COc1ccc(Cl)cc1N1CCN(C(=O)c2cc(C)nn2-c2cccc(Cl)c2)CC1` [3/127]: the IC50 is 1.8 µM.
Take “N-{{3-{[4-(3,5-Dimethoxyphenyl)piperazin-1-yl]carbonyl}-2-phenyl-2H-pyrazin-5-yl}glycine tert-butyl ester [Example E137]”: the IC50 worked out at 3.2 µM.
Consider `Cc1cc(C(=O)N2CCN(c3ccccc3F)CC2)n(-c2ccccc2)n1` [3/111], for which the IC50 was found to be 12.5 µM.
To `Cc1cc(C(=O)N2CCN(c3cccc(Cl)c3)CC2)n(-c2ccc([N+](=O)[O-])cc2)n1` [Example E49, [4-(3-Chlorophenyl)piperazin-1-yl][5-methyl-2-(4-nitrophenyl)-2H-pyrazol-3-yl]-methanone] belongs 20.2 µM; to `Cc1cc(C(=O)N2CCN(c3cncc(O)c3)CC2)n(-c2ccccc2)n1` [Example E140, [4-(5-hydroxypyrid-3-yl)piperazin-1-yl](5-methyl-2-phenyl-2H-pyrazol-3-yl)-methanone], 16.5 µM; to `COc1cc(OC)cc(N2CCN(C(=O)c3cc(COCCF)nn3-c3ccccc3)CC2)c1` [Example E123, [4-(3,5-Dimethoxyphenyl)piperazin-1-yl][5-(2-fluoroethoxymethyl)-2-phenyl-2H-pyrazol-3-yl]methanone], 2.5 µM.
On to `COc1cc(OC)cc(N2CCN(C(=O)c3cc(N4CCC4)nn3-c3ccccc3)CC2)c1` [Example E129, [5-(Azetidin-1-yl)-2-phenyl-2H-pyrazol-3-yl][4-(3,5-dimethoxyphenyl)piperazin-1-yl]methanone], for which the IC50 turned out to be 0.9 µM.
`COc1cc(OC)cc(N2CCN(C(=O)c3c(F)c(F)nn3-c3ccccc3)CC2)c1` [Example E139, [4-(3,5-dimethoxyphenyl)piperazin-1-yl](4,5-difluoro-2-phenyl-2H-pyrazol-3-yl)methanone]: the IC50 amounted to 2.9 µM.
Take `O=C(c1cc(CSc2ccccc2)nn1-c1ccccc1)N1CCN(c2cccc(Cl)c2)CC1` [Example E102, [4-(3-Chlorophenyl)piperazin-1-yl](2-phenyl-5-phenylsulfanylmethyl-2H-pyrazol-3-yl)methanone]: the IC50 was 18 µM.
`Cc1ccc(C)c(-n2nc(C)cc2C(=O)N2CCN(c3cccc(Cl)c3)CC2)c1` [Example E47, [4-(3-Chlorophenyl)piperazin-1-yl][2-(2,5-dimethylphenyl)-5-methyl-2H-pyrazol-3-yl]methanone]: the IC50 turned out to be 1.55 µM.
As to `COc1cc(OC)cc(N2CCN(C(=O)c3cc(Br)nn3-c3ccc(Br)cc3)CC2)c1` [Example E81, [5-Bromo-2-(4-bromophenyl)-2H-pyrazol-3-yl][4-(3,5-dimethoxyphenyl)-piperazin-1-yl]methanone], the IC50 was found to be 17.1 µM.
Consider `COC(=O)/C=C/c1cc(C(=O)N2CCN(c3cc(OC)cc(OC)c3)CC2)n(-c2ccccc2)n1` [Example E126, Methyl E-3-{5-[4-(3,5-dimethoxyphenyl)piperazine-1-carbonyl]-1-phenyl-1H-pyrazol-3-yl}acrylate], for which the IC50 amounted to 0.8 µM.
`COc1cc(OC)cc(N2CCN(C(=O)c3cc(CC#N)nn3-c3ccccc3)CC2)c1` [Example E135, (5-Cyanomethyl-2-phenyl-2H-pyrazol-3-yl)[4-(3,5-dimethoxyphenyl)piperazin-1-yl]methanone]: the IC50 was determined as 0.5 µM.
Take `Cc1cc(C(=O)N2CCN(c3cc(Cl)ccc3C)CC2)n(-c2ccc(F)cc2)n1` [3/117]: the IC50 was found to be 7 µM.
